Experimental data as given in patent US10730857B2, “Benzocyanine compounds” (Pierce Biotechnology, Inc., priority 2011, dated 2020).

Legend:
lamin A in U20S cells [1] = assay: Immunofluorescence, mouse anti-lamin A, U20S cells (FIG. 16); type: cell-based; conditions: FIG. 16
Procedure: The inventive compounds and commercial dye were evaluated for immunofluorescence in a second cell based assay using the following protocol. Frozen U20S cell plates stored at −20° C. were placed overnight at 4° C. Storage buffer (PBS) was removed and the cells were permeabilized for 15 min (100 μl/well) with 0.1% Triton-X100 in 1×PBS buffer. Plates were blocked for 30 min in 2% BSA in 1×PBS-0.1% Trion-X100. Primary antibodies diluted in 2% BSA in 1×PBS-0.1% Trion-X100 were added to the plates (column 1-11; column 12 included only blocker) and incubated five hours at room temperature. Mouse anti-lamin A was added at 2 μg/ml and rabbit anti-lamin B1 was added at 4 μg/ml. After incubation, the antibody solution was removed from the plates and the plates were washed PBS-0.5% Tween-20 (2×100 μl/well). Next, GAM and GAR secondary antibodies labeled with DyLight 680-NHS, DyLight 680B-NHS, 679 Compound 1-NHS, and Cy5.5 Mono Ester were diluted to 4 μg/ml in PBS and incubated with the cells for one hour at room temperature. GAM and GAR conjugated to DyLight 680-NHS, DyLight 680B-NHS, 679 Compound 1-NHS, and Company B Compound at 10× molar excess were diluted to 4 μg/ml in PBS and then serially diluted 1:1 in the plate to the following concentrations: 2 μg/ml, 1 μg/ml, 0.5 μg/ml, 0.25 μg/ml, 0.125 μg/ml and/or 0.0625 μg/ml. The plates were washed 3× with 100 μl/well PBS, and Hoechst stain diluted to 0.1 μg/ml in PBS was added to each well (100 μl/well). The plates were scanned on ArrayScan Plate Reader for imaging and quantitation.

[2] = tested on: rabbit IgG immunoglobulin; assay: Plate functional assay of dye-GAR conjugates; type: binding
Procedure: Performance of the dye-GAM conjugates, dye-GAR conjugates, and dye-SA conjugates was evaluated in a functional assay. Wells of a 96 white opaque plate or black clear-bottom plate were coated with target proteins mouse IgG immunoglobulin, rabbit IgG immunoglobulin, or biotinylated bovine serum albumin (BBSA). One hundred μl mouse or rabbit IgG, or BBSA at a concentration of 10 μg/ml was applied to the corresponding wells in columns 1 and 2. The target proteins were serially diluted 1:1 from the wells in columns 2 to 11 using 100 μl PBS. One hundred μl of the samples from the wells in column 11 were discarded. One hundred μl PBS was added to the wells in column 12. The plates were incubated overnight at 4° C. and then blocked 2×200 μl with Thermo Scientific SuperBlock® Blocking Buffer. The coated plates were washed 2×200 μl with PBS-Tween and 1×200 μl with PBS. Based on the calculated concentrations, conjugates were diluted 1:250 in PBS, added to the corresponding plates (100 μl/well) and then incubated for one hour in the dark. The plates were washed with 2×200 μl with PBS-Tween and 1×200 μl with PBS and filled with PBS buffer (100 μl/well) prior to scanning the white opaque plates on Tecan Safire using 679 nmexcitation/702 nmemission or scanning the black clear-bottom plates on LiCor Odyssey at 700 channel, to detect fluorescence intensity.

lamin A in U20S cells [3] = assay: Immunofluorescence detection of lamin A in U20S cells (FIG. 20A-C and repeat); type: cell-based
Procedure: In the indicated experiments, the inventive compounds and commercial dye were evaluated for immunofluorescence in a cell based assay using the following protocol. Frozen U20S cell plates which were stored at −80° C. were thawed for 45 minutes at 50° C. Storage buffer (PBS) was removed and the cells were permeabilized for 15 minutes with 0.1% Triton-X100 in 1×PBS buffer (100 μl/well). The cell plate was blocked for 60 minutes in 2% BSA/PBS-0.1% Triton-X100. Primary antibody, either rat anti-Grp94 (5 μg/ml), mouse anti-lamin A (10 μg/ml), or rabbit anti-lamin B1 (10 μg/ml), diluted in 2% BSA/PBS-0.1% Triton-X100 was added to the plate and incubated for 1 hour at room temperature. Control wells contained only 2% BSA/PBS-0.1% Triton-X100 blocker. After incubation, the antibody solution was removed from the plate and the plate was washed three times with 100 μl/well of PBS-0.5% Tween-20 and one time with 100 μl/well PBS. GARat, GAM, or GAR secondary antibodies labeled with various molar excess of the inventive or commercial compound were diluted to 4 μg/ml in PBS and incubated for 1 hour at room temperature. The plates were washed three times with 100 μl/well of PBST and once with 100 μl/well PBS, and Hoechst (diluted to 0.1 μg/ml in PBS) was added to each well (100 μl/well). The plates were scanned on ArrayScan Plate Reader or ToxInsight Instrument.

[4] = Absorbance/emission spectral properties and fluorescence intensity of the dyes; type: physicochemical
Procedure: Emission/excitation profiles for inventive and commercial compounds was determined by reconstituting the compounds in DMF at 10 mg/ml and then diluting in PBS buffer pH 7.2 to 10 μg/ml.

[5] = In vivo imaging with dye-labeled anti-CEA antibody; set-up: species or system nu/nu mice; conditions: dye conjugated to mouse anti-CEA antibody; i.v.; predicted results
Procedure: The inventive compounds are used for in vivo imaging as described in J. Gastrointest Surg (2008) 12:1938-1950. Briefly, human pancreatic cell lines are maintained in media supplemented with penicillin/streptomycin at 37° C. with 5% CO2. Mouse anti-CEA antibody and Control Mouse IgG (in PBS with 0.20% sodium azide) are conjugated to V08-15173. The dye is reconstituted at 10 mg/ml in DMF and then added to the antibody at a 10 molar excess. The reaction is carried out for one hour at room temperature. The samples are then dialyzed against 3×2 L of PBS. The cell lines are plated in 96-well plates at 5×10^4 cells per well. After 48 hours culture in appropriate media, the cells are incubated with 1 μg of V08-15173 labeled anti-CEA antibody or V08-15173-labeled control mouse IgG for four hours at 37° C. The cells are then washed three times with PBS and then imaged with an inverted Nikon De-485 microscope and Spot camera RD.
Surgical procedures and intravital imaging are performed with the animals anesthesized by intramuscular injection of 0.02 ml of 50% ketamine, 38% xylazine and 12 acepromazine maleate. Human pancreatic and colorectal cancer cell lines are harvested by trypsinization and washed twice with serum free medium […]. Cells (1×10^6 in 100 μl of serum-free media) are injected subcutaneously within 30 minutes of harvesting over the right flank in female nu/nu mice between 4-6 weeks of age. Subcutaneous tumors are allowed to grow for 7-14 days until they reached diameter of 1-2 mm prior to the delivery of conjugated antibody. For ASPC-1 implants, the cells are harvested by trypsinization and washed 3× in serum-free media. […]. The cells are resuspended in serum-free media at 5×10^6/ml. A volume of 200 μl of the cell suspension is then injected directly into the peritoneal cavity within 30 minutes of harvesting.
For antibody delivery, one to two weeks after subcutaneous, orthotopic, or intraperitoneal tumor implantation, animals are given intravenous (i.v.) injection of either conjugated anti-CEA or conjugated control IgG antibody diluted in PBS to a final volume of 100 μl. All i.v. injections are done via the tail vein. For the dose-response experiment, the antibody dose is 75 μg. For the in vivo time course, the animals are anesthesized and imaged at 30 min, 1, 2, 6, 24 hours and 8 and 15 days after systemic antibody delivery.
The inventive compounds are used for in vivo imaging as described in J. Gastrointest Surg (2008) 12:1938-1950. Briefly, human pancreatic cell lines are maintained in media supplemented with penicillin/streptomycin at 37° C. with 5% CO2. Mouse anti-CEA antibody and Control Mouse IgG (in PBS with 0.20% sodium azide) are conjugated to 779 Compound 1. […]

[6] = first property table of Example 6, NHS/mono ester forms
[7] = second property table of Example 6, NHS ester forms

Cy5.5 [reference compound]
Mean Total Intensity 2X (lamin A in U20S cells [1]; GAM conjugated at 2X molar excess): 211945
Mean Total Intensity 3X (lamin A in U20S cells [1]; GAM conjugated at 3X molar excess): 342208
Mean Total Intensity 4X (lamin A in U20S cells [1]; GAM conjugated at 4X molar excess): 451111

COCC[N+]1=C(/C=C/C=C/C=C2/N(CCCCCC(=O)O)c3ccc4c(S(=O)(=O)[O-])cc(S(=O)(=O)[O-])cc4c3C2(C)C)C(C)(CCCS(=O)(=O)[O-])c2c1ccc1c(S(=O)(=O)[O-])cc(S(=O)(=O)[O-])cc21.[Na+].[Na+].[Na+].[Na+] (centres unmarked) [679 Compound 1/1, 2-{(1E,3E)-5-[3-(5-Carboxypentyl)-1,1-dimethyl-6,8-disulfo-1,3-dihydro-benzo[e]indol-(2E)-ylidene]-penta-1,3-dienyl}-3-(2-methoxy-ethyl)-1-methyl-6,8-disulfo-1-(3-sulfopropyl)-1H-benzo[e]indolium]
quenching at 1000 ng/well at 25× (in words) ([2]; FIG. 14 summary Raw Fluorescence Intensity): apparent quenching
Raw Fluorescence Intensity behaviour at 25× molar excess (in words) ([2]; LiCOR Odyssey, FIG. 12): saturating at 25×
Mean Total Intensity, Average, 2.5 X (lamin A in U20S cells [3]; GAM conjugate 4 μg/ml, 2.5 X molar excess): 29229
Mean Total Intensity, Average, 5.0 X (lamin A in U20S cells [3]; GAM conjugate 4 μg/ml, 5.0 X molar excess): 49279
Mean Total Intensity, Average, 7.5 X (lamin A in U20S cells [3]; GAM conjugate 4 μg/ml, 7.5 X molar excess): 28782
Mean Total Intensity, Average, 10 X (lamin A in U20S cells [3]; GAM conjugate 4 μg/ml, 10 X molar excess): 30098
Mean Total Intensity, Average, 15 X (lamin A in U20S cells [3]; GAM conjugate 4 μg/ml, 15 X molar excess): 48071
Mean Total Intensity, Negative control, 2.5 X (lamin A in U20S cells [3]; repeat experiment, no primary antibody, 2.5 X): 8711
Mean Total Intensity, Negative control, 5 X (lamin A in U20S cells [3]; repeat experiment, no primary antibody, 5 X): 8674
Mean Total Intensity, Negative control, 10 X (lamin A in U20S cells [3]; repeat experiment, no primary antibody, 10 X): 20481
Mean Total Intensity, Negative control, 15 X (lamin A in U20S cells [3]; repeat experiment, no primary antibody, 15 X): 16277

2-{(1E,3E)-5-[3-(5-Carboxypentyl)-1,1-dimethyl-6,8-disulfo-1,3-dihydro-benzo[e]indol-(2E)-ylidene]-penta-1,3-dienyl}-3-(2-methoxy-ethyl)-1-methyl-6,8-disulfo-1-(3-sulfopropyl)-1H-benzo[e]indolium [679 Compound 1/1 (isomer 2)]
UV-vis λmax ([4]; PBS): 679 nm
λem ([4]; PBS): 698 nm

COCC[N+]1=C(/C=C/C=C/C=C2/N(CCCCCC(=O)ON3C(=O)CCC3=O)c3ccc4c(S(=O)(=O)[O-])cc(S(=O)(=O)O)cc4c3C2(C)C)C(C)(CCCS(=O)(=O)O)c2c1ccc1c(S(=O)(=O)O)cc(S(=O)(=O)O)cc21 (centres unmarked) [679 Compound 1-NHS]
Em [4, 6]: 698 nm
Ex [4, 6]: 679 nm
Em [4, 7]: 698 nm
Ex [4, 7]: 679 nm

COCC[N+]1=C(/C=C/C=C/C=C/C=C2/N(CCCCCC(=O)O)c3ccc4c(S(=O)(=O)[O-])cc(S(=O)(=O)O)cc4c3C2(C)C)C(C)(CCCS(=O)(=O)O)c2c1ccc1c(S(=O)(=O)O)cc(S(=O)(=O)O)cc21 (centres unmarked) [779 Compound 1, 6-((E)-2-((2E,4E,6E)-7-(3-(2-methoxyethyl)-1-methyl-6,8-disulfonato-1-(3-sulfonatopropyl)-1H-benzo[e]indol-3-ium-2-yl)hepta-2,4,6-trien-1-ylidene)-1,1-dimethyl-6,8-disulfonato-1H-benzo[e]indol-3(2H)-yl)hexanoate]
Ex vivo analysis of the vital organs [5]: presence of dye predominantly in the liver with some signal detected in the spleen intestines and lungs
post-experiment surgical exposure: accumulation of dye [5]: accumulation of dye in the liver, bladder, and a region of inflammation in the subcutaneous tissue

COCC[N+]1=C(/C=C/C=C/C=C2/N(CCCCCC(=O)O)c3ccc4c(S(=O)(=O)[O-])cc(S(=O)(=O)[O-])cc4c3C2(C)C)C(C)(CCCS(=O)(=O)[O-])c2c1ccc1c(S(=O)(=O)[O-])cc(S(=O)(=O)[O-])cc21.[Na+].[Na+].[Na+].[Na+] (single isomer, unassigned; isomer 1) [679 Compound 1/1 (isomer 1), 2-{(1E,3E)-5-[3-(5-Carboxypentyl)-1,1-dimethyl-6,8-disulfo-1,3-dihydro-benzo[e]indol-(2E)-ylidene]-penta-1,3-dienyl}-3-(2-methoxy-ethyl)-1-methyl-6,8-disulfo-1-(3-sulfopropyl)-1H-benzo[e]indolium]
UV-vis λmax ([4]; PBS): 679 nm
